Results taken from patent EP1834669A1, “Use of specific hydrazone compounds for the treatment of viral infections” (Heinrich-Pette-Institut, priority 2006, dated 2007).
“Also recorded” adds a separate entry of the source. Where two headings read alike, the source gives them in different places.

Key:
[1] = test system: PBMCs from a healthy donor; assay: Apoptosis assay, FACS with FITC-coupled annexin V; type: cell-based; settings: 0.4 µM, 12 days
Protocol: Analysis of cellular toxicity. (A) Cell viability assay. […] (B) Cell-cycle analysis. […] FACS-analysis was performed by DNA-staining with propidiumiodide. (C) Apoptosis-assay.
Analysis of Cellular Toxicity.

[2] = test system: HIV-1 BaL; assay: HIV-1 BaL infection of PM1 cells, p24 antigen in supernatant; type: cell-based; settings: HIV-1 BaL-infected PM1 cells, p24Gag antigen, day 6 and 9 post-infection; dihydrochloride
Protocol: The culture medium was changed at day 3 and 6 post-infection and the cells were split 1:1. p24^Gag antigen levels and cell viabilities were determined at day 6 and 9 post-infection. The percentage of inhibition of virus replication in the drug-treated cell culture, as compared to the untreated controls is shown in the upper panel. Cell viabilities from the same cultures were determined by alamarBlue™ assay (Serotec) and is shown in the lower panel. (B) Gag-specific Western-blot analysis. […] (C) Analysis of de novo infection. […]
(§1) PM1 cells were cultured in RPMI 1640 medium containing 10% fetal calf serum (Pansystems GmbH) and antibiotics (penicillin and streptomycin) and infected with the virus strains exactly as described elsewhere (Hauber, I., Bevec, D., Heukeshoven, J., Krätzer, F., Horn, F., Choidas, A., Harrer, T. & Hauber, J. (2005) J. Clin. Invest 115, 76-85). […] At the same time cell viability (measured by alamarBlue™ assay) and p24 antigen levels in the supernatant (Innotest HIV p24 Antigen mAb; Innogenetics N. V.) were determined. […]

[3] = test system: eIF-5A; assay: Hypusine modification of eIF-5A, [14C]putrescine labeling, 2D gel electrophoresis and immunoprecipitation; type: cell-based; settings: 0.4 µM, PM1 and HeLaCD4-CAT cells
Sequence of eIF-5A (P63241 whole entry): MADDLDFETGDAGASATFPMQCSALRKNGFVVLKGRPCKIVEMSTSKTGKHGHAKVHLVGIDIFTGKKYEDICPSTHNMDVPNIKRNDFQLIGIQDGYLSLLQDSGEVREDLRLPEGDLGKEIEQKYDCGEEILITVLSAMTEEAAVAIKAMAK
Protocol: Protein separation was performed using equal amounts of radiolabeled extracts, by isoelectric focusing in the first dimension on an immobilized linear pH gradient (IPG) from pH 4.0 to 7.0, which was followed by SDS-PAGE separation in the second dimension. Only molecular mass of < 25.0 kDa is shown in the autoradiographies. Molecular mass standards are indicated in kDa on the right. […] Coomassie blue-staining of the gel served as protein loading control (lower panel).
Two-Dimensional Gel Electrophoresis and Immunoprecipitation Analysis. […] Gel analysis was performed by autoradiography as previously described (Hauber, I., Bevec, D., Heukeshoven, J., Krätzer, F., Horn, F., Choidas, A., Harrer, T. & Hauber, J. (2005) J. Clin. Invest 115, 76-85). For immunoprecipitation of eIF-5A, 2 x 10^6 HeLaCD4-CAT cells (obtained through the NIH AIDS Research and Reference Reagent Program from B.K.Felber and G.N.Pavlakis) were metabolically labeled as above. The various cellular extracts were prepared and analyzed using a rabbit polyclonal anti-eIF-5A antibody (Schatz, O., Oft, M., Dascher, C., Schebesta, M., Rosorius, O., Jaksche, H., Dobrovnik, M., Bevec, D. & Hauber, J. (1998) Proc. Natl. Acad. Sci. U. S. A 95, 1607-1612) as previously described in detail (Hauber, I., Bevec, D., Heukeshoven, J., Krätzer, F., Horn, F., Choidas, A., Harrer, T. & Hauber, J. (2005) J. Clin. Invest 115, 76-85).

[4] = test system: HIV-1 isolate FE9; assay: Infection of PM1 cells with multidrug-resistant HIV-1 isolate FE9, p24 antigen in supernatant; type: cell-based
Protocol: Culture medium was changed every third day and cells were split 1:1. Cell viabilities and p24 antigen levels were determined at the indicated days. The percentage of inhibition of virus replication in the drug-treated culture as compared with replication in the untreated control culture is shown in the upper panel. The respective virus growth curves as measured by p24 antigen levels in the culture supernatants are shown in the lower panel. n/a; not applicable. (B) Cellular toxicities were determined in the same cultures by alamarBlue™ assay (Serotec) for metabolic activity.
HIV-1 Infection Experiments. […]
as §1

[5] = target: T1, S-adenosylmethionine decarboxylase (SAMDC) (Homo sapiens, UniProt P17707); settings: dihydrochloride, cited from earlier work
T1 sequence (P17707 68-334 limits assumed): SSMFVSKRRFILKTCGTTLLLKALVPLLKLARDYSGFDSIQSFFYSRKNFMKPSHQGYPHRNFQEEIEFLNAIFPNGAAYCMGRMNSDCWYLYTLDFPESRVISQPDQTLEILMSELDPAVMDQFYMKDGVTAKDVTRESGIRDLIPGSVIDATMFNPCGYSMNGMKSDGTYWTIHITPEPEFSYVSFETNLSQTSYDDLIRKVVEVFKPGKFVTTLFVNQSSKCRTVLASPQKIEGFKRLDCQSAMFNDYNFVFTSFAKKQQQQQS
T1 sequence (P17707 1-67 limits assumed): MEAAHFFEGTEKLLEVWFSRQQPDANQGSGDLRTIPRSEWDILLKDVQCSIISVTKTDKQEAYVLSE

[6] = test system: HIV-1 Rev pathway; assay: HIV-1 gag-pol mRNA export with GPV-RRE / GPV-4xCTE constructs in transfected HeLaCD4-CAT cells; type: cell-based; settings: 0.4 µM, HeLaCD4-CAT cells cultured 5 days, 48 hours post-transfection
Source text: Transcripts expressed from GPV-RRE access the CRM1/exporti nuclear export pathway. Messages expressed from GPV-4xCTE are transported across the nuclear envelope via the NXF1/TAP pathway. CMV-IE, cytomegalovirus immediate early promoter; pA, polyadenylation site; SD, splice donor; SA, splice acceptor; RRE, Rev reponse element; CTE, constitutive transport element. […] Likewise, cultures were transfected with GVP-4xCTE, a negative control plasmid (to maintain input DNA levels) and the constitutive internal control vector pBC12/CMV/SEAP. At 48 hours post-transfection cell supernatants were assayed for secreted alkaline phosphatase (SEAP) and p24 antigen levels. In addition, p55^Gag- and α-tubulin-specific (protein loading control) Western-blot analyses were performed from representative cell cultures at […].
Transfection Experiments and Plasmids. HeLaCD4-CAT cells were transiently transfected using Lipofectamine and Plus reagent according to the manufacturer's protocol (Invitrogen Corp.). […] At 48 hours post-transfection, cellular lysates were prepared and the levels of β-galactosidase (transfection efficiency control) and luciferase were assayed by ELISA (Roche Applied Science) or luminescence (Promega), respectively. […]

Substance: 2-[4-(aminoiminomethyl)-2,3-dihydro-1H-inden-1-ylidene]-hydrazinecarboximidamide dihydrochloride
- effects on cell death [1]: did not induce deleterious effects
- HIV-1 BaL replication [2]: Inhibition of HIV-1 BaL replication; also recorded: pronounced antiviral effects
- hypusine-formation in eIF-5A [3]: prevents hypusine-formation
- formation of progeny viruses ([4]; PM1 cells infected with multiple HAART-resistant isolate FE9, 0.4 µM, dihydrochloride): Inhibition of a multiple HAART-resistant HIV-1 isolate; also recorded: inhibited
- virus replication ([4]; applied concentration 0.4 µM): perfectly blocked virus replication
- inhibition of SAMDC [5]: potent inhibitor
- inhibition of SAMDC ([5]; listed as 2-[4-(aminoiminomethyl)-2,3-dihydro-1H-inden-1-ylidene]-hydrazinecarboximidamide): efficient inhibitor
- HIV-1 Rev pathway [6]: Specific inhibition
